Here are results for 25 molecules from ChEMBL document CHEMBL6087454, “Identification of Novel Organo-Se BTSA-Based Derivatives as Potent, Reversible, and Selective PPARγ Covalent Modulators for Antidiabetic Drug Discovery” (J Med Chem, 2025).

Active and inactive are the calls of the source. The rule behind the calls is not given here. Where only a bound is given, the exact number is not on record here.

Data set [1] deals with T1, Peroxisome proliferator-activated receptor gamma (Homo sapiens, UniProt P37231).
T1 sequence (P37231 whole entry): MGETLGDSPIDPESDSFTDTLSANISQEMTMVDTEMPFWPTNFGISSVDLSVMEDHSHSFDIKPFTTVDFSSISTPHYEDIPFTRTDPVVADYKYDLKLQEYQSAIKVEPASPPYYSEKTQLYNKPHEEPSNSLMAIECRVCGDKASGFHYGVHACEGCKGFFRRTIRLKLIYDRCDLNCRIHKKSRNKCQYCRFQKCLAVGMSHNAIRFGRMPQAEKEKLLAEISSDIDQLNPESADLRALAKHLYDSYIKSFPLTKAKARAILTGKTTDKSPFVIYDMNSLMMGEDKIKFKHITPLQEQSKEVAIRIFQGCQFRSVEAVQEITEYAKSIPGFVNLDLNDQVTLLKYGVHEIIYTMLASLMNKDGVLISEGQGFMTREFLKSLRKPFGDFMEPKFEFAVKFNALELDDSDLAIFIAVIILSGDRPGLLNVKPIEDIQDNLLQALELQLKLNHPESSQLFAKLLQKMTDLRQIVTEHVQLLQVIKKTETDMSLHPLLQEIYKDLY
Kind of data set: Binding affinity to recombinant GST-tagged human PPAR-gamma ligand binding domain (E235 to Y505 residues) extracted from Escherichia coli BL21 (DE3) cells assessed as inhibition constant in presence of fluormone pan-PPAR green tracer by TR-FRET assay.

Data set [2] deals with T1, Peroxisome proliferator-activated receptor gamma. The data set can be described thus: Displacement of fluormone pan-PPAR green from recombinant GST-tagged human PPAR-gamma ligand binding domain (E235 to Y505 residues) extracted from Escherichia coli BL21 (DE3) cells by TR-FRET assay.
Data set [3] in a line: Toxicity in male db/db mouse model assessed as increase in blood cholesterol level at 10 mg/kg/day, po administered for 4 weeks by ELISA. The data set is classed as organism-based. The note with it: in vivo, 672 h.
The nature of data set [4]: Toxicity in male db/db mouse model assessed as increase in lipid accumulation in liver at 10 mg/kg/day, po administered for 4 weeks by Oil red O staining based analysis. The data set is classed as organism-based. The conditions noted are these: in vivo, 672 h.
The subject of the next data set is 3T3-L1. The data set can be described thus: Induction of adipocyte differentiation in mouse 3T3-L1 cells assessed as lipid accumulation at 1 uM measured after 48 hrs in presence of 1-oxido-1-(4-(tosyloxy)phenyl)-1lambda4-benzo[d][1,3,2]thiaselenazol-5-yl 4-methylbenzenesulfonate by Oil red O staining based inverted microscopic analysis. The data set is classed as functional, cell-based.

A short description of data set [5]: Toxicity in male db/db mouse model assessed as increase in liver weight at 10 mg/kg/day, po administered for 4 weeks. The conditions noted are these: in vivo, 672 h. The data set is classed as organism-based.
The nature of data set [6]: Toxicity in male db/db mouse model assessed as increase in serum AST level at 10 mg/kg/day, po administered for 4 weeks by ELISA. The data set is classed as organism-based. The note with it: in vivo, 672 h.
Data set [7] is described as follows: Toxicity in male db/db mouse model assessed as increase in white adipocytes size at 10 mg/kg/day, po administered for 4 weeks by H and E staining based analysis. The data set is classed as organism-based. The note with it: in vivo, 672 h.
A short description of data set [8]: Toxicity in male db/db mouse model assessed as increase in brown adipocytes size at 10 mg/kg/day, po administered for 4 weeks by H and E staining based analysis. The conditions noted are these: in vivo, 672 h. The data set is classed as organism-based.
A short description of data set [9]: Toxicity in male db/db mouse model assessed as lipid accumulation in liver at 10 mg/kg/day, po administered for 4 weeks. The data set is classed as organism-based. The conditions noted are these: in vivo, 672 h.
For data set [10], the target named is T2, Peroxisome proliferator-activated receptor gamma (Homo sapiens) (UniProt P37231).
T2 sequence (whole entry): T1 sequence (P37231 whole entry)
Kind of data set: Covalent binding affinity to recombinant PPAR-gamma ligand binding domain (unknown origin) at Cys285 residue at 0.4 uM incubated for 30 mins by rhodamine-maleimide staining based SDS-PAGE analysis.

A short description of data set [11]: Toxicity in male db/db mouse model assessed as increase in blood triglyceride level at 10 mg/kg/day, po administered for 4 weeks by ELISA. The data set is classed as organism-based. The conditions noted are these: in vivo, 672 h.
Data set [12] can be described thus: Toxicity in male db/db mouse model assessed as hepatomegaly in liver at 10 mg/kg/day, po administered for 4 weeks. The data set is classed as organism-based. The conditions noted are these: in vivo, 672 h.
Data set [13] can be described thus: Toxicity in male db/db mouse model assessed as increase in serum ALT level at 10 mg/kg/day, po administered for 4 weeks by ELISA. The conditions noted are these: in vivo, 672 h. The data set is classed as organism-based.

Consider `CS1(=O)=N[Se]c2ccc(Cl)cc21` (stereo not given), for which the inhibitory constant (Ki) in data set [1] is > 18 µM. In [2], the IC50 is > 50 µM.

For the molecule `Cc1ccc2c(c1)[Se]N=S2(C)=O` (stereo not given), the Ki in [1] is > 18 µM. In addition, in data set [2], the IC50 is > 50 µM.

As to `O=S1(CCl)=N[Se]c2ccccc21` (stereo not given), the Ki in data set [1] was > 18 µM. For the same molecule, in data set [2], the IC50 is > 50 µM.

Take `Cc1cc(C)cc(S2(=O)=N[Se]c3c(C)cc(C)cc32)c1` (stereo not given): the Ki in data set [1] is 13.7 µM. Moreover, in data set [2], the IC50 was 38.2 µM.

Consider `O=S1(c2ccc(-c3ccccc3)cc2)=N[Se]c2cc(-c3ccccc3)ccc21` (stereo not given), for which the Ki in [1] is 0.6 µM. Moreover, the IC50 in data set [2] is 1.68 µM.

For `Cc1cccc(S2(=O)=N[Se]c3ccc(C)cc32)c1` (stereo not given), in data set [1], the Ki is 2.97 µM. In addition, the IC50 in data set [2] was found to be 8.26 µM.

Consider `O=S1(c2ccc(Br)cc2)=N[Se]c2cc(Br)ccc21` (stereo not given), for which the Ki in data set [1] was 0.53 µM. In addition, in data set [2], the IC50 was 1.48 µM.

In the case of `O=S1(c2cccc(Cl)c2)=N[Se]c2ccc(Cl)cc21` (stereo not given), the Ki in [1] was 0.23 µM. For the same molecule, the IC50 in data set [2] worked out at 0.64 µM.

As to `COC(=O)c1ccc2c(c1)[Se]N=S2(C)=O` (stereo not given), the inhibitory constant (Ki) in [1] was > 18 µM. The IC50 in [2] is > 50 µM.

Regarding `CN(CCOc1ccc(CC2SC(=O)NC2=O)cc1)c1ccccn1` (stereo not given) [ROSIGLITAZONE], the Activity entry in data set [3], in [4], in data set [5], in data set [6], in data set [7] and in data set [8] was “Toxic” in each case. For the same molecule, the Activity result is reported as “Toxic” in data set [9], “Non-toxic” in data set [11], “Toxic” in data set [12] and “Toxic” in data set [13]. Further, the outcome (with 3T3-L1; in data set [10]) was inactive.

Regarding `O=S1(c2ccc(Cl)cc2)=N[Se]c2cc(Cl)ccc21` (stereo not given), the Ki in [1] turned out to be 14.5 µM. Also, the IC50 in data set [2] is 40.4 µM.

Take `CC(C)(C)c1ccc(S2(=O)=N[Se]c3cc(C(C)(C)C)ccc32)cc1` (stereo not given): the Ki in data set [1] was 0.45 µM. The IC50 in data set [2] was determined as 1.24 µM.

In the case of `CS1(=O)=N[Se]c2ccccc21` (stereo not given), the Ki in [1] is > 18 µM. Also, in [2], the IC50 was > 50 µM.

In the case of `O=S(=O)(Oc1ccc(S2(=O)=N[Se]c3cc(OS(=O)(=O)C(F)(F)F)ccc32)cc1)C(F)(F)F` (stereo not given), the Ki in [1] came out at 0.89 µM. Moreover, in data set [2], the IC50 came out at 2.48 µM.

As to `CCCc1ccc(S2(=O)=N[Se]c3cc(CCC)ccc32)cc1` (stereo not given), in data set [1], the Ki was 0.76 µM. Also, in data set [2], the IC50 worked out at 2.11 µM.

In the case of `CCS1(=O)=N[Se]c2ccccc21` (stereo not given), the Ki in data set [1] is > 18 µM. The 50% inhibitory concentration (IC50) in data set [2] is > 50 µM.

Take `CS1(=O)=N[Se]c2cccc(Cl)c21` (stereo not given): the Ki in data set [1] was > 18 µM. Further, the 50% inhibitory concentration (IC50) in [2] was > 50 µM.

Take `O=[N+]([O-])c1ccc(S2(=O)=N[Se]c3cc([N+](=O)[O-])ccc32)cc1` (stereo not given): the Ki in data set [1] was determined as 0.24 µM. In addition, the IC50 in data set [2] was 0.67 µM.

Take `Cc1ccccc1S1(=O)=N[Se]c2cccc(C)c21` (stereo not given): in [1], the Ki worked out at 14.1 µM. Further, in data set [2], the IC50 is 39.3 µM.

Turning to `O=S1(c2ccc(C(F)(F)F)cc2)=N[Se]c2cc(C(F)(F)F)ccc21` (stereo not given), the Ki in data set [1] is 0.62 µM. Moreover, the IC50 in [2] came out at 1.73 µM.

As to `CS1(=O)=N[Se]c2cc(Cl)ccc21` (stereo not given), in data set [1], the Ki was > 18 µM. Moreover, the IC50 in [2] was > 50 µM.

Regarding `Cc1ccc(S2(=O)=N[Se]c3cc(C)ccc32)cc1` (stereo not given), the inhibition constant (Ki) in data set [1] was 4.52 µM. In data set [2], the IC50 came out at 12.6 µM.

With `O=S1(C2CC2)=N[Se]c2ccccc21` (stereo not given), the Ki in data set [1] was > 18 µM. In data set [2], the IC50 was > 50 µM.

For `O=S1(c2ccccc2)=N[Se]c2ccccc21` (stereo not given), the inhibition constant Ki in data set [1] is > 18 µM. The IC50 in [2] was > 50 µM.

As to `COc1cccc(S2(=O)=N[Se]c3ccc(OC)cc32)c1` (stereo not given), the Ki in data set [1] turned out to be 1.18 µM. Also, the half-inhibitory concentration (IC50) in data set [2] turned out to be 3.28 µM.
